In patent USRE38424E1 (The United States of America as represented by the …, priority 1994, dated 2004):
Several values for one entry are separate records, joined by “and”; a condition that tells them apart may be missing. Identical values can stand only once. Like-named read-outs stand apart in the source and are kept apart here.

How the values were obtained:
[1] = in vivo
From the text: All toxicities were graded according to the NCI-CTEP criteria, with the exception of peripheral neuropathy which was graded as described previously herein.
Dose limiting toxicity (DLT) was defined as any of the following criteria occurring in two of three patients treated at a given dose level: (1) reversible non-hematologic toxicity of at least grade 3; (2) irreversible non-hematologic toxicity of at least grade 2; or (3) the persistence of a nadir with an absolute granulocyte count of less than 500 cells/mm^3 or platelet count of less than 25,000/mm^3 for five days or more.

[2] = system: epithelial ovarian cancer; assay: Phase I taxol dose escalation with G-CSF support: disease response; assay type: in vivo, human
Experimental: Patients with histologically proven epithelial ovarian cancer with bidimensionally measurable disease were candidates for the study.
All patients received subsequent cycles of therapy on the general medical oncology in-patient ward.
A G-CSF dose of 10 μg/kg/day was used. […] This was determined by checking WBC and platelet counts on a twice weekly basis.
Patients who had normalization of serum CA-125 levels and complete resolution of all assessable disease confirmed at peritoneoscopy Were assessed as having a clinical complete response to therapy (CCR). A partial response (PR) was designated for individuals experiencing a greater than 50% reduction in the sum of the products of the greatest perpendicular diameters of all measurable lesions that lasted at least one month. A minor response (MR) was defined as a greater than 25% but less than 50% reduction in the sum of the products of the greatest perpendicular diameters of all measurable lesions lasting at least one month. Patients with a less than 25% reduction in tumor volume after two cycles of therapy were considered to be nonresponders and were taken off therapy. Patients who experienced greater than 25% reduction in tumor volume and/or a more than 50% reduction in CA-125 level received two cycles beyond maximal response. Patients with CCR received two cycles beyond peritoneoscopy.

[3] = Totals, all dose levels 170-300 mg/m^2, 14 patients assessable
[4] = Totals, all dose levels 170-300 mg/m^2, 14 patients assessable, listed as taxol
[5] = taxol 170 mg/m^2, 2 patients assessable
[6] = taxol 200 mg/m^2, 3 patients assessable
[7] = taxol 250 mg/m^2, 6 patients assessable
[8] = taxol 300 mg/m^2, 3 patients assessable

## CC(=O)O[C@H]1C(=O)[C@@]2(C)[C@H]([C@H](OC(=O)c3ccccc3)[C@]3(O)C[C@H](OC(=O)[C@H](O)[C@@H](NC(=O)c4ccccc4)c4ccccc4)C(C)=C1C3(C)C)[C@]1(OC(C)=O)CO[C@@H]1C[C@@H]2O [Taxol, taxol]
[1]; female, human
  Dose at which dose limiting toxicity (DLT) was reached: 300 mg/m2/21 days
  Duration of granulocytopenia occurring in spite of G-CSF support: less than 5 days
  Persistence of neurologic symptoms beyond the peak: 1 to 2 weeks
  Persistence of symptoms of grade 3 neuropathy: up to 6 months
  Time of nadir heart rate into therapy, range: 1 to 21 h
[1]; female, human, 1 cycle
  Mean nadir heart rate (±SEM): 60±11 bpm
  Nadir heart rate, range: 46-84 bpm
  Number of individuals whose heart rate fell below 60 bpm: 10
[1]; female, human, 2 cycle
  Mean nadir heart rate: 61±8 bpm
  Nadir heart rate, range: 46-75 bpm
  Number of individuals whose heart rate fell below 60 bpm: 6
[1]
  Alopecia and grade 1 to 2 myalgias observed: all patients
  Patients in whom mucositis was observed: two
  Patients with peripheral neuropathy of grade 3: three
[2]; Five of 14 assessable patients, all dose levels
  Patients with an objective response to therapy: 36%
[2]; [3]
  No. CCR (clinical complete response): 1
  No. MR (minor response): 5
  No. NR (no response; progressive disease on therapy): 4
  No. PR (partial response): 4
[2]; [4]
  No. CCR (clinical complete response): one
  No. MR (minor response): Five
  No. NR (no response; progressive disease on therapy): Four
  No. PR (partial response): four
[2]; five patients
  Reductions in tumor mass in patients with a minor response: 30% to 46%
[2]; phase I, individual PR patients
  Response durations for PR: 30 weeks and ≥ 25 weeks and ≥ 23 weeks and 11 weeks
[2]; phase I, the one CCR patient
  Response duration for CCR: ≥ 30 weeks
[2]; [5]
  No. NR (no response): 1
  No. PR (partial response): 1
[2]; [6]
  No. CCR (clinical complete response): 1
  No. MR (minor response): 1
  No. NR (no response): 1
[2]; [7]
  No. MR (minor response): 3
  No. NR (no response): 2
  No. PR (partial response): 2
[2]; [8]
  No. MR (minor response): 1
  No. PR (partial response): 2
